What was measured:
Assay in all cases: relative viability (nuclei count vs DMSO), 5 days (fraction); higher = more cells survive
Sulindac + Foretinib = compound: CC1=C(CC(=O)O)c2cc(F)ccc2/C1=C\c1ccc([S+](C)[O-])cc1 [Sulindac] + COc1cc2c(Oc3ccc(NC(=O)C4(C(=O)Nc5ccc(F)cc5)CC4)cc3F)ccnc2cc1OCCCN1CCOCC1 [Foretinib] (partner 0.25 µM)
Procedure, shortened: (§1)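 Relative viability divides the nuclei count in treated wells by that in vehicle wells. Lung cancer cell lines were seeded in 1536-well plates, dosed by pin tool the next day, and fixed and stained after 5 days in one step with final 0.05% Triton X-100, 1% formaldehyde and 1 ug/ml Hoechst. Dosing was a single drug or a fixed anchor-drug dose plus five library-drug doses (not always all listed) in √10 steps, and values are medians of duplicate plates imaged at 4×.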

[1] = compound: CN[C@@H]1C[C@H]2O[C@@](C)([C@@H]1OC)n1c3ccccc3c3c4c(c5c6ccccc6n2c5c31)C(=O)NC4 [Staurosporine] + Nc1nc2[nH]cc(CCc3ccc(C(=O)N[C@@H](CCC(=O)O)C(=O)O)cc3)c2c(=O)[nH]1 [Pemetrexed] (partner 0.2 µM)
Procedure, shortened: as §1

[2] = compound: O=c1[nH]cc(F)c(=O)[nH]1 [5-Fluorouracil] + Cc1cc(Nc2cc(N3CCN(C)CC3)nc(Sc3ccc(NC(=O)C4CC4)cc3)n2)n[nH]1 [Tozasertib] (partner 0.1 µM)
Procedure, shortened: as §1

[3] = compound: O=c1[nH]cc(F)c(=O)[nH]1 [5-Fluorouracil] + Nc1ncn([C@H]2C[C@H](O)[C@@H](CO)O2)c(=O)n1 [Decitabine] (partner 2 µM)
Procedure, shortened: as §1

Cell Line | relative viability (Sulindac + Foretinib; first compound 0.08 µM) | relative viability (Sulindac + Foretinib; first compound 0.253 µM) | relative viability (Sulindac + Foretinib; first compound 8 µM) | relative viability ([1]; first compound 0.005 µM) | relative viability ([1]; first compound 0.05 µM) | relative viability ([1]; first compound 0.1581 µM) | relative viability ([1]; first compound 0.5 µM) | relative viability ([2]; first compound 0.02 µM) | relative viability ([2]; first compound 0.2 µM) | relative viability ([2]; first compound 0.6325 µM) | relative viability ([2]; first compound 2 µM) | relative viability ([3]; first compound 0.02 µM) | relative viability ([3]; first compound 0.2 µM) | relative viability ([3]; first compound 0.6325 µM) | relative viability ([3]; first compound 2 µM) | relative viability (Sulindac + Foretinib; first compound 0.8 µM) | relative viability (Sulindac + Foretinib; first compound 2.53 µM) | relative viability ([1]; first compound 0.01581 µM)
201T | 1.1 | 1.08 | 1.22 | 0.339 | 0.261 | 0.253 | 0.214 | 0.916 | 0.477 | 0.369 | 0.313 | 0.885 | 0.559 | 0.3 | 0.257 |  |  | 
NCI-H1755 | 0.976 | 0.974 | 1.03 | 0.348 | 0.236 | 0.224 | 0.223 | 0.643 | 0.523 | 0.309 | 0.28 | 0.747 | 0.616 | 0.433 | 0.394 | 0.848 | 0.916 | 0.321
NCI-H647 | 1.25 | 1.2 | 1.28 | 0.118 | 0.104 | 0.0736 | 0.0566 | 0.146 | 0.415 | 0.232 | 0.243 | 0.367 | 0.383 | 0.39 | 0.391 | 1.05 | 1.25 | 0.0997
NCI-H1650 | 1.05 | 1.21 | 1.32 | 0.325 | 0.209 | 0.23 | 0.104 | 0.408 | 0.401 | 0.317 | 0.211 | 0.573 | 0.473 | 0.348 | 0.271 |  | 1.24 | 0.239
NCI-H1355 | 1.16 | 1.04 | 0.987 | 0.999 | 0.449 | 0.27 | 0.2 | 0.529 | 0.366 | 0.258 | 0.226 | 0.332 | 0.332 | 0.26 | 0.245 |  | 1.07 | 0.609
NCI-H1975 | 1.12 | 1.01 | 1.05 | 0.246 | 0.184 | 0.128 | 0.118 | 0.847 | 0.707 | 0.386 | 0.201 | 0.449 | 0.381 | 0.28 | 0.206 | 1.05 | 0.993 | 0.185
BEN | 0.834 | 0.693 | 0.771 | 0.831 | 0.523 | 0.261 | 0.303 | 0.43 | 0.479 | 0.491 | 0.535 | 0.743 | 0.743 | 0.746 | 0.681 | 0.57 | 0.569 | 0.749
NCI-H322M | 0.992 | 0.996 | 1 | 0.608 | 0.451 | 0.423 | 0.388 | 0.511 | 0.495 | 0.391 | 0.323 | 0.638 | 0.616 | 0.774 | 0.676 | 0.882 | 0.954 | 0.501
SK-MES-1 | 1.13 | 1.38 | 1.02 | 0.543 |  | 0.145 | 0.141 | 1.05 | 0.408 | 0.319 | 0.28 | 0.339 | 0.352 | 0.323 | 0.294 | 0.372 | 0.88 | 0.277

— the supplement of paper PMC10307832
